According to publication PMC5478271, “Chemical structure-guided design of dynapyrazoles, cell-permeable dynein inhibitors with a unique mode of action” (eLife, 2017):
Values joined by “and” are separate entries in the source; they are usually repeats but may differ in a detail not shown here. Identical values can stand only once.

Experiments:
Assay type in all cases: biochemical
[1] = target: T1, AAA3 Walker A-mutant His-dynein 1 (K2601A) (Homo sapiens, UniProt Q14204, K2601A); assay: ATPase activity of AAA3 Walker A-mutant (K2601A) His-dynein 1; conditions: for IC50: 2% DMSO, read-out: IC50, inhibition of the basal ATPase activity of the AAA3 Walker A-mutant His-dynein 1
T1 construct: (wild-type, K1912A, K2601A, AA 1320–4646, uniprot: Q14204); made in house; host or cells: Sf9 insect cells (baculovirus)
T1 sequence (Q14204 1320-4646 K2601A): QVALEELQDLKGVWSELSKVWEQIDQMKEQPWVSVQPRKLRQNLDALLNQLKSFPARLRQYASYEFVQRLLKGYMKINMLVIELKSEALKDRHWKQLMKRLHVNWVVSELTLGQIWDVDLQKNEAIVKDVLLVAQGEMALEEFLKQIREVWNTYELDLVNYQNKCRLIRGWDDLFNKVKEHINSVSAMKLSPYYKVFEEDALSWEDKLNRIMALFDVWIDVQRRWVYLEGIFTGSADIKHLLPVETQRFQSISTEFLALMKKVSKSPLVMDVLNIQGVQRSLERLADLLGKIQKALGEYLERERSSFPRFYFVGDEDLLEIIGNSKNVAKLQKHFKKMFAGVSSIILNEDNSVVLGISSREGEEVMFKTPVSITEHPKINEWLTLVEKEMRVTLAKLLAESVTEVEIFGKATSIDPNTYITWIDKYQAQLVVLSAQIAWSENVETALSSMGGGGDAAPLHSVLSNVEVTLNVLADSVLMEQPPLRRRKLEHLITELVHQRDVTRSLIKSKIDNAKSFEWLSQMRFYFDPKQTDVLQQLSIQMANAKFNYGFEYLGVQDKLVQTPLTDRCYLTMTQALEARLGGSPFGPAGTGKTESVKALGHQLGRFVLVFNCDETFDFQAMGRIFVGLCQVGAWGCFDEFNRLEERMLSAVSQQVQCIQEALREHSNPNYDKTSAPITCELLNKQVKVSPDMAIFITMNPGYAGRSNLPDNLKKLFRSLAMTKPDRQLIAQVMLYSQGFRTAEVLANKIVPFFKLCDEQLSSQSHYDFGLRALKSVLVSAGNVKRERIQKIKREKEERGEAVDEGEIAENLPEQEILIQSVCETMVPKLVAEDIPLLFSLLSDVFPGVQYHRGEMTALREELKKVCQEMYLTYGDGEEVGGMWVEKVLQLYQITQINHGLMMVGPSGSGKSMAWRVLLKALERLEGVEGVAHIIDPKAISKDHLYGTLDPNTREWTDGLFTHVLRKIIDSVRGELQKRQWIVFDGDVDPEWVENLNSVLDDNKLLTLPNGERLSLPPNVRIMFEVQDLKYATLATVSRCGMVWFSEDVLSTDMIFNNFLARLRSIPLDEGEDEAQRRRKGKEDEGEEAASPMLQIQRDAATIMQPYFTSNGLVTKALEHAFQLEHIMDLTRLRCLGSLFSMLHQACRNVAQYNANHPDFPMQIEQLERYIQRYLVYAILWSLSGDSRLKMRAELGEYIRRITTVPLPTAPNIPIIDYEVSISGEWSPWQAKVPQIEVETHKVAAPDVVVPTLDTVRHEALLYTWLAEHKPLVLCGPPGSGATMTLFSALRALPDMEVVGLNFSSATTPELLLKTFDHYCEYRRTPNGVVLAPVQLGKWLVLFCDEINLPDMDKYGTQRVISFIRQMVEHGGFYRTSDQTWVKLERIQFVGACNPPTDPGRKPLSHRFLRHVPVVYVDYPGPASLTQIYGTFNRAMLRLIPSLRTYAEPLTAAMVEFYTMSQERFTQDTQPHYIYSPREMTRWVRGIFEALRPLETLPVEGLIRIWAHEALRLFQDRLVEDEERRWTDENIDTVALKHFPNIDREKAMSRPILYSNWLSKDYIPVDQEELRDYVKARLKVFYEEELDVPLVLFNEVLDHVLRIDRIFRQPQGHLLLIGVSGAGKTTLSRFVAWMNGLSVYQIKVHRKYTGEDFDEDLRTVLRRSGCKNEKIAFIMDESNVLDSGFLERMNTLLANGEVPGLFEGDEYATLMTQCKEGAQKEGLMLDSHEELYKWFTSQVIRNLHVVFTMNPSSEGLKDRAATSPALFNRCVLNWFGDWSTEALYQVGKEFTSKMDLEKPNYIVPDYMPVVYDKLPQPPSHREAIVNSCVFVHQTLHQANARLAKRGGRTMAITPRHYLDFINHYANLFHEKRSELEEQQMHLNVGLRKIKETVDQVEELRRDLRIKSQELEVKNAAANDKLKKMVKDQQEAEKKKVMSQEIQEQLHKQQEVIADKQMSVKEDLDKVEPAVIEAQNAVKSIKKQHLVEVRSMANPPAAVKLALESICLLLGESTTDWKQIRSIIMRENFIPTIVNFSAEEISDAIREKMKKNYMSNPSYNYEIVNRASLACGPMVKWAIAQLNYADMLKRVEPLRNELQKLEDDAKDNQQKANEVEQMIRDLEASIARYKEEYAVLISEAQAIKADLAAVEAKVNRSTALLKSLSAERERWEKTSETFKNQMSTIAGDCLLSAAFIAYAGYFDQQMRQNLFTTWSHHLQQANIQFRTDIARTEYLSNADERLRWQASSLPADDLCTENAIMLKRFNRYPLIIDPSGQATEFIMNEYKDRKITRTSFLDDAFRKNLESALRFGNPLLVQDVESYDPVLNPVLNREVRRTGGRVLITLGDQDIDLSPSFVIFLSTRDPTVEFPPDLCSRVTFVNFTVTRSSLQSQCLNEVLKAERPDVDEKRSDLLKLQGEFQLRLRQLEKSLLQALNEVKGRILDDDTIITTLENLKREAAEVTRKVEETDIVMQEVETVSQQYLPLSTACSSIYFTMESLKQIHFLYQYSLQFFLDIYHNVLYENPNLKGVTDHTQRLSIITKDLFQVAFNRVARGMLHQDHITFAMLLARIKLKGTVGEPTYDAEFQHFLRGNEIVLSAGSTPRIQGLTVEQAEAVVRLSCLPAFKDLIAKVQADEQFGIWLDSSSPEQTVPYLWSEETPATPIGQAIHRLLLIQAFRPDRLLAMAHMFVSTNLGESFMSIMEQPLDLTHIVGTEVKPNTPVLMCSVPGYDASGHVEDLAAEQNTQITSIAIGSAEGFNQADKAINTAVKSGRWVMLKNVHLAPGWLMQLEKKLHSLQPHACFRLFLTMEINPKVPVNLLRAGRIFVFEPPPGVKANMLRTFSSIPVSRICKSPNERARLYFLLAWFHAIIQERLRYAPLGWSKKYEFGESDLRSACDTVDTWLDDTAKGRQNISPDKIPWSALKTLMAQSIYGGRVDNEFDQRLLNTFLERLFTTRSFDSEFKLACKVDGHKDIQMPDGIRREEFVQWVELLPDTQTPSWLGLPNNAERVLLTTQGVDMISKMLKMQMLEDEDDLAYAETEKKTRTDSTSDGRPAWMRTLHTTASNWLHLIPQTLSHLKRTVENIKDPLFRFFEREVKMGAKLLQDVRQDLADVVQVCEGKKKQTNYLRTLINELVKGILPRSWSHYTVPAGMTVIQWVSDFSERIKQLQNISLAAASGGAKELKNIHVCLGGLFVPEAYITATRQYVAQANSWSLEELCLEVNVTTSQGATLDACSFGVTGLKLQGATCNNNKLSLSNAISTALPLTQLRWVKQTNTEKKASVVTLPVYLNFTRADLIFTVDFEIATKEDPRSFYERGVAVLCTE
Procedure: (§1) ATPase assays using recombinant Dynein 1 (wild-type and mutants) were performed in a buffer containing 25 mM PIPES pH7.0, 30 mM KCl, 1 mM EGTA, 5 mM MgCl2, 0.01% triton X-100, 1 mM DTT, and 20–30 µM taxol (if microtubules were present). For typical conditions, enzyme was incubated with varying concentrations of inhibitor in buffer containing 2% DMSO for 10 min in a volume of 10 μL. When microtubules were present, they were polymerized by stepwise addition of taxol and high concentrations of DMSO (30% final during polymerization reactions), and re-suspended following centrifugation in ATPase buffer to a concentration up to threefold above the final concentration used in the reaction (bovine brain tubulin, no fluoresecent label). For microtubule-stimulated reactions in dose-response format, reactions were assembled by 1:1:1 mixture of 3x enzyme stock, 3x compound stock (in buffer with 6% DMSO), and 3x microtubule stock to each well. For microtubule-stimulated ATPase assays at tubulin concentrations > 2.5 µM, enzyme stock was supplemented with compound stock in pure DMSO (resulting in an intermediate DMSO concentration of 6%), and then the microtubule stock was added. Final enzyme concentrations were 30–100 nM for GFP-dynein 1, wild-type 6x-His-dynein 1, and K2601A 6x-His-dynein 1 and up to 500 nM for K1912A 6x-His-dynein 1. The final DMSO concentration was 2% in all ATPase assays performed.
Assembled reaction mixtures (including enzyme, compound, and microtubules, if present) were incubated for 10 min before addition of ATP. Each ATPase reaction was initiated by addition of 2 μL of a 6x ATP stock containing trace γ-^32P ATP (3 µCi/mmol, 3 µCi/mL, Perkin Elmer) and allowed to proceed for a time predetermined to lie within the linear range of the assay (20–30 min). For typical conditions, ATP was used at a final concentration of 1 mM. Reactions were quenched by the addition of 12 µL 100 mM EDTA, and 2 μL of each quenched reaction was spotted onto PEI-cellulose TLC plates (Millipore). Plates were developed in a glass chamber with a freshly prepared solution of 150 mM formic acid and 150 mM LiCl, dried, exposed to a storage phosphor tray (GE Healthsciences), and scanned on a Typhoon imaging system (GE Healthsciences). The fraction of γ-phosphate hydrolyzed in each condition was quantified using FIJI.
Curve fitting: Where dose-response experiments are fit and IC50values given, these are obtained as follows: Individual experiments are treated as separate. The data are fit to a sigmoidal dose-response curve of the form (Y=Bottom + (Top-Bottom)/(1 + 10^((LogIC50-X)*HillSlope)). All variables were allowed to float freely with the exception of the variable denoted ‘bottom’, which was constrained to be >0. The separate IC50 values obtained from fits to each individual experiment's dataset were averaged together and presented as a mean with range (Figure 3G and H) or standard deviation (Figures 3I, 5D, 6E and K).

GFP-dynein 1 = target: T2, GFP-dynein 1 (Homo sapiens, UniProt Q14204); assay: Basal ATPase activity of GFP-dynein 1; conditions: 40 µM compound, 1 mM MgATP, 2% DMSO; control 0.62 ± 0.2 s^−1
T2 construct: (AA 1320–4646 with additional valine [at position 4647], uniprot Q14204); protein A tag (followed by TEV-cleavable linker) (N, cleaved yes); made in house; host or cells: insect cells (baculovirus)
Procedure: as §1, with “Final enzyme concentrations were 30–100 nM for GFP-dynein 1, wild-type 6x-His-dynein 1, and K2601A 6x-His-dynein 1 and up to 500 nM for K1912A 6x-His-dynein 1. The final DMSO concentration was 2% in all ATPase assays performed.” left out
(§2) Assembled reaction mixtures (including enzyme, compound, and microtubules, if present) were incubated for 10 min before addition of ATP. […] The fraction of γ-phosphate hydrolyzed in each condition was quantified using FIJI.

His-dynein 1 = target: T3, His-dynein 1 (Homo sapiens, UniProt Q14204); assay: Basal ATPase activity of His-dynein 1 (wild-type); conditions: 40 µM compound, 1 mM MgATP, 2% DMSO; control 0.66 ± 0.1 s^−1
T3 construct: (wild-type, K1912A, K2601A, AA 1320–4646, uniprot: Q14204); made in house; host or cells: Sf9 insect cells (baculovirus)
T3 sequence (Q14204 1320-4646): as the sequence (Q14204 1320-4646 K2601A) above, with A1282K counted along it
Procedure: as §1, with “Final enzyme concentrations were 30–100 nM for GFP-dynein 1, wild-type 6x-His-dynein 1, and K2601A 6x-His-dynein 1 and up to 500 nM for K1912A 6x-His-dynein 1. The final DMSO concentration was 2% in all ATPase assays performed.” left out
as §2

Row | Structure (SMILES) | IC50 ([1]; 1 mM MgATP) | inhibition at 40 µM (GFP-dynein 1) | inhibition at 40 µM (His-dynein 1) | Reduction of AAA3 mutant dynein's ATPase activity across the range of microtubule concentrations tested ([1]; 30 µM compound, 1 mM MgATP) | inhibition at 30 µM ([1]; 30 µM compound, no microtubules, read-out: Inhibition of basal activity of the AAA3 mutant) | Residual ATPase activity of AAA3 mutant at the highest concentrations tested ([1]; basal activity, dose-response) | Inhibition of basal ATPase activity of GFP-dynein 1 (GFP-dynein 1)
1 | N#C/C(C(=O)c1ccc(Cl)cc1Cl)=C1\NC(=O)c2ccc(Cl)cc2N1 [ciliobrevin D, reference compound] | 38.4 µM and 38 µM | ~70% | ~70% | – | – | – | –
2 | N#Cc1c(C2(c3ccc(Cl)cc3)CC2)nn2c1[nH]c(=O)c1cc(I)ccc12 [Compound 8, 2-[1-(4-chlorophenyl)cyclopropyl]-7-iodo-5-oxo-4H-pyrazolo[1,5-a]quinazoline-3-carbonitrile] | 5.5 ± 1.6 µM | – | ~30% | 70–80% | ~70% | ~ 0.2 s^−1 | did not inhibit
